Data: ChEMBL document CHEMBL3045162, “Inhibition of HIV-1 replication by a tricyclic coumarin GUT-70 in acutely and chronically infected cells” (Bioorg Med Chem Lett, 2013)
Values belong to the compound of their own block, whether it stands above or below them. The source made the active and inactive calls. The calls are words filed in the database; no cut-off is given here.

What was measured:
MOLT-4 [1] = assay: Cytotoxicity against Homo sapiens (human) MOLT4 cells by MTT assay; type: cell-based
U1 [2] = assay: Cytotoxicity against Homo sapiens (human) U1 cells by MTT assay in presence of TNF-alpha; type: cell-based
U1 [3] = assay: Cytotoxicity against Homo sapiens (human) U1 cells by MTT assay in presence of PMA; type: cell-based
[4] = target: Transcription factor p65 (Homo sapiens) (UniProt Q04206); assay: Inhibition of NF-kappa B p65 activity in TNFalpha-treated Homo sapiens (human) U1 cells at 10 uM after 2 to 4 hr by luciferase assay; type: cell-based
Sequence of Transcription factor p65 (Homo sapiens) (Q04206 whole entry): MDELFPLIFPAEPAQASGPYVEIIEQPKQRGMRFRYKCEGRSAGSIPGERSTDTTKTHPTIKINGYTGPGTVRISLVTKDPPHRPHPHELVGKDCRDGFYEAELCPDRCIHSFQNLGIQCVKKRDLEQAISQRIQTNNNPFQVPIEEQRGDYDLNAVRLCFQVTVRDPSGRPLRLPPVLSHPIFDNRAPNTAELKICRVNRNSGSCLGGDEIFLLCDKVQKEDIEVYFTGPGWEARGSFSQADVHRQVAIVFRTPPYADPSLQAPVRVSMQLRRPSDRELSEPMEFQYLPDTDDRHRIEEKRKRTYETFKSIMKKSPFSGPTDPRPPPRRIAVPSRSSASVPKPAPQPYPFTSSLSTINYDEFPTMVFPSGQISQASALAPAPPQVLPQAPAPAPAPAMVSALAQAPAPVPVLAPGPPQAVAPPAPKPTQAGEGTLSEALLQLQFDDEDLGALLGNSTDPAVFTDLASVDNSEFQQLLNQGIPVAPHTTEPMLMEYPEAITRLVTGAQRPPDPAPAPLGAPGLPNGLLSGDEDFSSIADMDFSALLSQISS

[5] = target: Transcription factor p65 (Homo sapiens) (UniProt Q04206); assay: Reduction in NF-kappa B p65 cytosolic level in TNFalpha-treated Homo sapiens (human) U1 cells after 0.5 to 6 hr by Western blot analysis; type: cell-based
[6] = target: Transcription factor p65 (Homo sapiens) (UniProt Q04206); assay: Inhibition of NF-kappa B p65 nuclear translocation in TNFalpha-treated Homo sapiens (human) U1 cells after 0.5 to 6 hr by Western blot analysis; type: cell-based
[7] = target: Transcription factor p65 (Homo sapiens) (UniProt Q04206); assay: Binding affinity to NF-kappa B p65 in Homo sapiens (human) U1 nuclear extract after 0.5 to 4 hr by competitive EMSA
MOLT-4 [8] = assay: Inhibition of NF-kappaB-mediated viral replication in Homo sapiens (human) Molt-4 cells infected with X4 tropic HIV1 NL4-3 at 10 uM after 24 hr by RT-PCR analysis; type: cell-based
U1 [9] = assay: Inhibition of NF-kappaB-mediated viral replication in Homo sapiens (human) U1 cells […] at 10 uM after 24 hr by RT-PCR analysis in presence of TNF-alpha; type: cell-based
TZM-bl = assay: Inhibition of NF-kappaB-mediated viral replication in Homo sapiens (human) TZM-bl cells infected with X4 tropic HIV1 NL4-3 compound pre-treated for 2hr before infection measured after 24 hr by luciferase assay; type: cell-based
[10] = tested on: Human immunodeficiency virus 1; assay: Antiviral activity against X4 tropic Human immunodeficiency virus 1 NL4-3 infected human Molt4 cells assessed as intracellular p24 expression at 10 uM after 7 days by flow cytometry; type: functional, organism-based; conditions: MOLT-4
[11] = tested on: Human immunodeficiency virus 1; assay: Antiviral activity against X4 tropic Human immunodeficiency virus 1 NL4-3 infected human Molt4 cells assessed as intracellular p24 expression after 4 to 7 days by flow cytometry; type: functional, organism-based; conditions: Human immunodeficiency virus 1, NL4-3, MOLT-4
[12] = tested on: Human immunodeficiency virus 1; assay: Antiviral activity against X4 tropic Human immunodeficiency virus 1 NL4-3 infected human Molt4 cells assessed as intracellular p24 expression at 10 uM after 4 days by flow cytometry; type: functional, organism-based; conditions: MOLT-4
[13] = tested on: Human immunodeficiency virus 1; assay: Antiviral activity against Human immunodeficiency virus 1 infected U1 cells assessed as intracellular p24 expression after 24 hr by flow cytometry in presence of TNF-alpha; type: functional, organism-based
[14] = tested on: Human immunodeficiency virus 1; assay: Antiviral activity against Human immunodeficiency virus 1 infected U1 cells assessed as intracellular p24 expression after 24 hr by flow cytometry in presence of PMA; type: functional, organism-based
[15] = Selectivity index, ratio of IC50 for human MOLT4 cells to EC50 for X4 tropic HIV1 NL4-3 infected in human Molt4 cells; type: toxicity, cell-based, MOLT-4; conditions: read-out: Ratio IC50/EC50
[16] = Selectivity index, ratio of IC50 for PMA-stimulated human U1 cells to EC50 for X4 tropic HIV1 NL4-3 infected in PMA-stimulated human U1 cells; type: toxicity, cell-based; conditions: with X4 tropic HIV1 NL4-3, read-out: Ratio IC50/EC50
[17] = Selectivity index, ratio of IC50 for TNF-alpha-stimulated human U1 cells to EC50 for X4 tropic HIV1 NL4-3 infected in TNF-alpha-stimulated human U1 cells; type: toxicity, cell-based; conditions: with X4 tropic HIV1 NL4-3, read-out: Ratio IC50/EC50
[18] = Cytotoxicity against Homo sapiens (human) TZM-bl cells by MTT assay; type: cell-based
[19] = Human immunodeficiency virus 1, U1, 24 h

inhibition [4]: Active
Activity [5]: inactive
inhibition [6]: Active
Activity [7]: Active
EC50 [11]: 3.41 µM
EC50 [13, 19]: 4.32 µM
EC50 [14, 19]: 3.48 µM
SMILES: C/C=C(\C)C(=O)c1c(OC)c2c(c3c(CCC)cc(=O)oc13)OC(C)(C)C=C2
IC50 (MOLT-4 [1]): > 10 µM
IC50 (U1 [2]): 8.44 µM
IC50 (U1 [3]): 8.44 µM
inhibition (MOLT-4 [8]): Active
inhibition (U1 [9]): Active
inhibition (TZM-bl): Active
Activity [10]: Active
Activity [12]: Active
Activity [13]: Dose-dependent effect
Activity [14]: Dose-dependent effect
selectivity ratio [15]: > 2.93
selectivity ratio [16]: 2.43
selectivity ratio [17]: 1.95
IC50 [18]: > 10 µM

SMILES: CC(C)C[C@H](NC(=O)[C@H](Cc1ccccc1)NC(=O)c1cnccn1)B(O)O
inhibition (U1 [9]): Active

SMILES: CC(C)(C)c1ccc(S(=O)(=O)/C=C/C#N)cc1
inhibition (U1 [9]): Active
